# Data published in ChEMBL document CHEMBL1145338, “Novel 2-aminopyrimidine carbamates as potent and orally active inhibitors of Lck: synthesis, SAR, and in vivo antiinflammatory activity” (J Med Chem, 2006).
# Tests used:
# [1] = target: Proto-oncogene tyrosine-protein kinase Src (Homo sapiens, UniProt P12931); assay: Inhibition of Src
# [2] = target: Mitogen-activated protein kinase 14 (Homo sapiens, UniProt Q16539); assay: Inhibition of p38alpha
# [3] = target: Tyrosine-protein kinase Lck (Homo sapiens, UniProt P06239)
# Chain of Tyrosine-protein kinase Lck (P06239 whole entry): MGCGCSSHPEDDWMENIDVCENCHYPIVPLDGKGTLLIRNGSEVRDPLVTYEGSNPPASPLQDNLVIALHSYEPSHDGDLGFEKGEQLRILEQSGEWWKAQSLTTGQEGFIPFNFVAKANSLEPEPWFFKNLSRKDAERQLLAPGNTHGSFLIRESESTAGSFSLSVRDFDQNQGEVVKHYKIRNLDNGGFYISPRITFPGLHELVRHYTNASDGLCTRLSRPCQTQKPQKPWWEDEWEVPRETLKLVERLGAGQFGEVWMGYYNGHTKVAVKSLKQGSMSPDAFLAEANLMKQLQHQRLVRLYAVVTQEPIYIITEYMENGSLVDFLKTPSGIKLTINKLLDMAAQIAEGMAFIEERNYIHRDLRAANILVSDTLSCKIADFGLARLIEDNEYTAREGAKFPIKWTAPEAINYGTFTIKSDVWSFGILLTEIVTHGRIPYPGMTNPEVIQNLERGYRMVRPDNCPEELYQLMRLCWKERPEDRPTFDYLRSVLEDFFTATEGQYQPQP
# Description: Inhibition of Lck in presence of 0.5 uM ATP by HTRF kinase assay
# [4] = target: Vascular endothelial growth factor receptor 2 (Homo sapiens, UniProt P35968)
# Chain of Vascular endothelial growth factor receptor 2 (P35968 whole entry): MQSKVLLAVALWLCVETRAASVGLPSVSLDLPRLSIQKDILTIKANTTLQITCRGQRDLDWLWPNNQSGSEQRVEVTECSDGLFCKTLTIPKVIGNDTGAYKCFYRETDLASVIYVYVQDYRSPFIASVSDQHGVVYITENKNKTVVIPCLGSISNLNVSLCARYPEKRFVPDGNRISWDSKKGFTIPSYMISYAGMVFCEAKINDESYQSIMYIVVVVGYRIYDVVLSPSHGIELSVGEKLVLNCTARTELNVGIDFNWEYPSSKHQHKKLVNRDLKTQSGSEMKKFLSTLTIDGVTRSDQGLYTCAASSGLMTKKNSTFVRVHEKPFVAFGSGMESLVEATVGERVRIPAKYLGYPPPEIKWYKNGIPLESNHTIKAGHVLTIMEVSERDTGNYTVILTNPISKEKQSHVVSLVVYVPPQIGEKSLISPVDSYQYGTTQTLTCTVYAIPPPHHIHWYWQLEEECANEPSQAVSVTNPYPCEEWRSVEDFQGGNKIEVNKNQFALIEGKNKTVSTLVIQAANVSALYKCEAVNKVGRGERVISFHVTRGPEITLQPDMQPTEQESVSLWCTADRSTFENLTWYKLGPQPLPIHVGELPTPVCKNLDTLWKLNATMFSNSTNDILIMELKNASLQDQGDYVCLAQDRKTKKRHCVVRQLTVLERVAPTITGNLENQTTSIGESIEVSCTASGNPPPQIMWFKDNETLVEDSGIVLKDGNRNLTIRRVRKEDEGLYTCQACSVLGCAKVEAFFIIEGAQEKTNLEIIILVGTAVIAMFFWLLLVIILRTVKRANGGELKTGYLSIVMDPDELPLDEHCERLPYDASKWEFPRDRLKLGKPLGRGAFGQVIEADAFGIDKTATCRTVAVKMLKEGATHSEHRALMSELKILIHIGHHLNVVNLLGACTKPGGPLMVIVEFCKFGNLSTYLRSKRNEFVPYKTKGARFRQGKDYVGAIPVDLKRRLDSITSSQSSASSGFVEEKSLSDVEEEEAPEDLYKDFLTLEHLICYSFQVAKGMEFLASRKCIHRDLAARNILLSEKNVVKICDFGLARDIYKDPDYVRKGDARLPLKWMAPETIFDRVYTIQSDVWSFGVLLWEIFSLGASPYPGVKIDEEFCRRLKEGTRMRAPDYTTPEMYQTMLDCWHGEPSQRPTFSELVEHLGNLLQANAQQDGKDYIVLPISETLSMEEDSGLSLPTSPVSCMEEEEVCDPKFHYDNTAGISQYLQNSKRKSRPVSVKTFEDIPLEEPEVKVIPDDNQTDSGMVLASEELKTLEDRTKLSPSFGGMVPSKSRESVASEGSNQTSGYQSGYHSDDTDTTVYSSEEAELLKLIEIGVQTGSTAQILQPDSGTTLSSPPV
# T-cell [5] = assay: Inhibition of anti-CD3/CD28-induced IL2 secretion in human T cells; type: functional, cell-based
# T-cell [6] = assay: Inhibition of human T cell proliferation by mixed lymphocyte reaction; type: functional, cell-based
# [7] = Protein binding in human plasma; type: ADME, cell-free; details: read-out: PPB (converted)
# [8] = AUC (0-infinity) in Sprague-Dawley rat at 1 mg/kg, iv; type: ADME, organism-based; design: time infinity, dose 1 mg/kg, route intravenous; details: plasma
# [9] = Clearance in Sprague-Dawley rat at 1 mg/kg, iv; type: ADME, organism-based; design: dose 1 mg/kg, route intravenous; details: in vivo
# [10] = Volume of distribution in Sprague-Dawley rat at 1 mg/kg, iv; type: ADME, organism-based; design: dose 1 mg/kg, route intravenous; details: in vivo, read-out: Vss
# [11] = Half life in Sprague-Dawley rat at 1 mg/kg, iv; type: ADME, organism-based; design: dose 1 mg/kg, route intravenous; details: in vivo
# [12] = Cmax in Sprague-Dawley rat at 5 mg/kg, po; type: ADME, organism-based; design: dose 5 mg/kg, route oral; details: in vivo
# [13] = Tmax in Sprague-Dawley rat at 5 mg/kg, po; type: ADME, organism-based; design: dose 5 mg/kg, route oral; details: in vivo
# [14] = target: Cyclin-dependent kinase 2 (Homo sapiens, UniProt P24941); assay: Inhibition of CDK2
# [15] = target: Protein kinase C theta type (Homo sapiens, UniProt Q04759); assay: Inhibition of PKCtheta
# Chain of Protein kinase C theta type (Q04759 whole entry): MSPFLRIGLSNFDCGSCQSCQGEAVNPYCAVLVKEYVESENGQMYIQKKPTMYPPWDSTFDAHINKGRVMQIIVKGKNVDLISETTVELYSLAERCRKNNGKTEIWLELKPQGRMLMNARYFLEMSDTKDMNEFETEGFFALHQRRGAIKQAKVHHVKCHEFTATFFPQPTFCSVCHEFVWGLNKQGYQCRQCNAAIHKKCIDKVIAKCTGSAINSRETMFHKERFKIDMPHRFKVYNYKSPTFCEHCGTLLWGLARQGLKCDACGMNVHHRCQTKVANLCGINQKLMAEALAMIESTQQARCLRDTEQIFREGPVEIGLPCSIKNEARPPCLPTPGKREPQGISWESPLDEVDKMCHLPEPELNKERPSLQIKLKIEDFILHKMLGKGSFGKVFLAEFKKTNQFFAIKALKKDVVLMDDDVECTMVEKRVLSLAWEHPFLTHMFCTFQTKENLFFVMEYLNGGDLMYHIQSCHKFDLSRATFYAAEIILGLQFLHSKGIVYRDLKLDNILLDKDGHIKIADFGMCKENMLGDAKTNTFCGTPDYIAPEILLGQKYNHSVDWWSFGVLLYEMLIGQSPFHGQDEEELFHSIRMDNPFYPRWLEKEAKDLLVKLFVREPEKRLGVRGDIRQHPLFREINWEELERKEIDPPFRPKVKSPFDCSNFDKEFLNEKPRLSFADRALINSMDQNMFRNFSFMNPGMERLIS
# T-cell [16] = assay: Inhibition of anti-CD3/CD28-induced T cell proliferation; type: functional, cell-based; details: Homo sapiens
# Homo sapiens = species on record: Homo sapiens; assay: Inhibition of anti-CD3/CD28-induced IL2 secretion in human whole blood T cell; type: functional
# T-cell [17] = assay: Inhibition of T cell receptor zeta chain phosphorylation; type: functional, cell-based; details: Homo sapiens
# T-cell [18] = assay: Inhibition of anti-CD3/CD28-induced IL2 secretion in T cells stimulated with phorbol myristic acid and calcium ionophore; type: functional, cell-based; details: Homo sapiens
# Jurkat = assay: Antiproliferative activity against Jurkat cells; type: functional, cell-based; details: Homo sapiens
# [19] = AUC (0-infinity) in Sprague-Dawley rat at 5 mg/kg, po; type: ADME, organism-based; design: time infinity, dose 5 mg/kg, route oral; details: plasma
# [20] = Bioavailability in Sprague-Dawley rat at 5 mg/kg, po; type: ADME, organism-based; details: in vivo
# Mus musculus [21] = assay: Inhibition of anti-CD3-induced IL2 production in BALB/c mouse at 10 mg/kg, po; type: functional
# Mus musculus [22] = assay: Inhibition of anti-CD3-induced IL2 production in BALB/c mouse at 30 mg/kg, po; type: functional
# Mus musculus [23] = assay: Inhibition of anti-CD3-induced IL2 production in BALB/c mouse at 100 mg/kg, po; type: functional
# [24] = Protein binding in rat plasma; type: ADME, cell-free; details: read-out: PPB (converted)
# [25] = target: Tyrosine-protein kinase SYK (Homo sapiens, UniProt P43405); assay: Inhibition of Syk
# [26] = target: Tyrosine-protein kinase BTK (Homo sapiens, UniProt Q06187)
# [27] = target: Insulin-like growth factor 1 receptor (Homo sapiens, UniProt P08069)
# Chain of Insulin-like growth factor 1 receptor (P08069 31-736 limits assumed): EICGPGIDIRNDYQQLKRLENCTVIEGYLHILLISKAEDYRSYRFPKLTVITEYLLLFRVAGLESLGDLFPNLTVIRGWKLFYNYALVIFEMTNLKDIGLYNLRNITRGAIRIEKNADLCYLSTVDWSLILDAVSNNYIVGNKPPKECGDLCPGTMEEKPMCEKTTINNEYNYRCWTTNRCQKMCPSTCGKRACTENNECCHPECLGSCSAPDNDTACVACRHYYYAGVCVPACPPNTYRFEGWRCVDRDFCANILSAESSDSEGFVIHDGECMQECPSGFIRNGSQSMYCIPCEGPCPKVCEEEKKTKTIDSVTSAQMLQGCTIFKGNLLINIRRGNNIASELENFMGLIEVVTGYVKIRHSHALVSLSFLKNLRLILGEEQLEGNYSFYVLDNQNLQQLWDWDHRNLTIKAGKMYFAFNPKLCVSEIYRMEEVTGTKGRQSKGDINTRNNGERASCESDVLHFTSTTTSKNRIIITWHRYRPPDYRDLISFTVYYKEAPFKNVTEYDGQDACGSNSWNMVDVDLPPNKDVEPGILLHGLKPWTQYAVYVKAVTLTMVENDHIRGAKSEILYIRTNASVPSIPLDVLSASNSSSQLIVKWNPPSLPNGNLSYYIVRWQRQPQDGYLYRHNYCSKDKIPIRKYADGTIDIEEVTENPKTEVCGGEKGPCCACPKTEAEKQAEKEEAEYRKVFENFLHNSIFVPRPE
# Chain of Insulin-like growth factor 1 receptor (P08069 741-1367 limits assumed): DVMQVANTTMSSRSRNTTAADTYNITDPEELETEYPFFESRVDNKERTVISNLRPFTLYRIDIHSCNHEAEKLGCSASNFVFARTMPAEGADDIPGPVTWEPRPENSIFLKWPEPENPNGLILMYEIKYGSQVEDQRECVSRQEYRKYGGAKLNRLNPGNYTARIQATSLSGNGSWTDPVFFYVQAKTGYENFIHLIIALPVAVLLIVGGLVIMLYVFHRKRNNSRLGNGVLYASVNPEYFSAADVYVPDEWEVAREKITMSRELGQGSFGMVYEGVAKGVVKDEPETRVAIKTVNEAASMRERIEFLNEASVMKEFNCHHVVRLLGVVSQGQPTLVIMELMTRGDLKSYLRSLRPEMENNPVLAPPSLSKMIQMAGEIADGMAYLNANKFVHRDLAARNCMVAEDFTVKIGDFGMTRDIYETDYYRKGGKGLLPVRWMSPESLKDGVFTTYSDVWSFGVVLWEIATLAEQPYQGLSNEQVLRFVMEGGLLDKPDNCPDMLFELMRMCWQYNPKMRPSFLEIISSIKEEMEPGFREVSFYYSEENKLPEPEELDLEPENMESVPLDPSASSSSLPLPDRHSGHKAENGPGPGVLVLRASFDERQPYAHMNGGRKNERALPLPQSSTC
# [28] = target: Tyrosine-protein kinase JAK2 (Homo sapiens, UniProt O60674)
# [29] = target: T1, Tyrosine-protein kinase JAK3 (Homo sapiens, UniProt P52333)
# T1 sequence (P52333 whole entry): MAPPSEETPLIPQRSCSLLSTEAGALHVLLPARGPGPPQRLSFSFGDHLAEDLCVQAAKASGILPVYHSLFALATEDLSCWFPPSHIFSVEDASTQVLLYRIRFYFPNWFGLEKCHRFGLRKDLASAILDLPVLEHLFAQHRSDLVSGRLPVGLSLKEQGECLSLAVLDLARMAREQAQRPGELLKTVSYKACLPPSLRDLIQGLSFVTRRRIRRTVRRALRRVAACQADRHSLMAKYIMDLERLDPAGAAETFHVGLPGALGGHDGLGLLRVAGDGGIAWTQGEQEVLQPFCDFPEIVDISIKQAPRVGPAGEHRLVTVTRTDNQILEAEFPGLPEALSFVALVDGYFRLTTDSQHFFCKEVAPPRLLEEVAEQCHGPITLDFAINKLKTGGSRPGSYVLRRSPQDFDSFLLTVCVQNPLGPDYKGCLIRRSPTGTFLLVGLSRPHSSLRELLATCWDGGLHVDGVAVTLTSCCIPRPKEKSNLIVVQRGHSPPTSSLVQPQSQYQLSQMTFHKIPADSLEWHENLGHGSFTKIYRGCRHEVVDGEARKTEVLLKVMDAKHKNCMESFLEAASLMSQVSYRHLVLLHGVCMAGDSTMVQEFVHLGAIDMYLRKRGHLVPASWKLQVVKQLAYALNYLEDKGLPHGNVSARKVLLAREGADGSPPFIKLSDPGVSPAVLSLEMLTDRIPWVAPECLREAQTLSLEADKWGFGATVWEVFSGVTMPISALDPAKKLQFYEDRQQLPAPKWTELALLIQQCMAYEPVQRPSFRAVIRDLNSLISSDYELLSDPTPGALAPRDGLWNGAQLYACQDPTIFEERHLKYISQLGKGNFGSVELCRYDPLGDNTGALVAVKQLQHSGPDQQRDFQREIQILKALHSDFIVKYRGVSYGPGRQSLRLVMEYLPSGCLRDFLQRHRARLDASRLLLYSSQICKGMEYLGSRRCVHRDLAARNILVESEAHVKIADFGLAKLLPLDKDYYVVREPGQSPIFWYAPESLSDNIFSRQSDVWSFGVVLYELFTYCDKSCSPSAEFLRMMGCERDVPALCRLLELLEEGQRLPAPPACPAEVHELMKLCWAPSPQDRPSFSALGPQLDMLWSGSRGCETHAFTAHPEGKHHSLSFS
# [30] = target: Mitogen-activated protein kinase 10 (Homo sapiens, UniProt P53779)
# Chain of Mitogen-activated protein kinase 14 (Q16539 whole entry): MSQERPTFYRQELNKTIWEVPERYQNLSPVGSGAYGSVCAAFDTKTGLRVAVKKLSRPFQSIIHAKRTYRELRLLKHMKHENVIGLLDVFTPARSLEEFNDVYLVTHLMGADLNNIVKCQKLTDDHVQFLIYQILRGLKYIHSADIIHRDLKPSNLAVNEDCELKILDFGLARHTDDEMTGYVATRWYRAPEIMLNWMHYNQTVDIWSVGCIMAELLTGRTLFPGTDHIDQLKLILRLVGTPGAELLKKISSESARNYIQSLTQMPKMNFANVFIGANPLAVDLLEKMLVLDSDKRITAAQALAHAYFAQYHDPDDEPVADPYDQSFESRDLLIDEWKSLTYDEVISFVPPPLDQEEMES
# Chain of Proto-oncogene tyrosine-protein kinase Src (P12931 2-536 limits assumed): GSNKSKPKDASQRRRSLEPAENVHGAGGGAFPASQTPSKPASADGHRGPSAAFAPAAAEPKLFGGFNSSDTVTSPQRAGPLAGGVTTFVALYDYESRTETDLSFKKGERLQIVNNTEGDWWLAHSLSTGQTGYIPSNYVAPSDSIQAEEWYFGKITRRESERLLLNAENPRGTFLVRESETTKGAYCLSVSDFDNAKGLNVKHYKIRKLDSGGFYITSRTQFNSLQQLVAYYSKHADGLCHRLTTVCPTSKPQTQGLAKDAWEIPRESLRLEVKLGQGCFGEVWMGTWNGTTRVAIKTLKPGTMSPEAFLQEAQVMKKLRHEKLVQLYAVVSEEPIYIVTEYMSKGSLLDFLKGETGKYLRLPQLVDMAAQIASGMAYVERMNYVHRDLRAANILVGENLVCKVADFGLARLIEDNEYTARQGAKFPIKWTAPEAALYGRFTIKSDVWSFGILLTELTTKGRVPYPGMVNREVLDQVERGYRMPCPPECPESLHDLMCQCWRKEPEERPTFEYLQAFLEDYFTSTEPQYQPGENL
structure (smiles),measurement,setting,value
Cc1cccc(C)c1OC(=O)N(c1ccc(-c2ccccc2)cc1)c1ccnc(Nc2ccc(N3CCN(C)CC3)cc2)n1,IC50,[1],98 nM
same,IC50,[2],1800 nM
same,IC50,[3],13 nM
same,IC50,[4],590 nM
COc1ccccc1N(C(=O)Oc1c(C)cccc1C)c1ccnc(Nc2ccc(N3CCN(C)CC3)cc2)n1,IC50,[1],4 nM
same,IC50,[2],420 nM
same,IC50,[3],1 nM
same,IC50,[4],190 nM
COc1ccc(N(C(=O)Oc2c(C)cccc2C)c2ccnc(Nc3ccc(N4CCN(C)CC4)c(F)c3)n2)c(OC)c1,IC50,[1],2 nM
same,IC50,[2],1000 nM
same,IC50,T-cell [5],200 nM
same,IC50,[3],1 nM
same,IC50,[4],260 nM
COc1ccc(N(C(=O)Oc2c(C)cccc2C)c2ccnc(Nc3cc(OC)c(OCCN4CCN(C)CC4)c(OC)c3)n2)c(OC)c1,IC50,[1],1 nM
same,IC50,[2],180 nM
same,IC50,T-cell [5],290 nM
same,IC50,[3],1 nM
same,IC50,[4],230 nM
COc1ccc(N(C(=O)Oc2c(C)cccc2C)c2ccnc(Nc3ccc(OCCN(C)C)cc3)n2)c(OC)c1,IC50,[1],4 nM
same,IC50,[2],2100 nM
same,IC50,T-cell [5],270 nM
same,IC50,[3],1 nM
same,IC50,[4],220 nM
COc1ccc(N(C(=O)Oc2c(C)cccc2C)c2ccnc(Nc3ccc(N4CCN(C)CC4)cc3)n2)c(OC)c1,IC50,[1],6 nM
same,IC50,[2],1300 nM
same,IC50,T-cell [5],1900 nM
same,IC50,[3],2 nM
same,IC50,[4],640 nM
COc1ccc(N(C(=O)Oc2c(C)cccc2C)c2ccnc(Nc3ccc(OCCCN(C)C)cc3)n2)c(OC)c1,IC50,[1],4 nM
same,IC50,[2],2100 nM
same,IC50,T-cell [5],230 nM
same,IC50,[3],1 nM
same,IC50,[4],230 nM
COc1ccc(N(C(=O)Oc2c(C)cccc2C)c2ccnc(Nc3ccc(OCCCN4CCN(C)CC4)c(F)c3)n2)c(OC)c1,IC50,[1],5 nM
same,IC50,[2],1300 nM
same,IC50,T-cell [5],510 nM
same,IC50,[3],1 nM
same,IC50,[4],590 nM
COc1ccc(N(C(=O)Oc2c(C)cccc2C)c2ccnc(Nc3ccc(OCCCN4CCCCC4)c(F)c3)n2)c(OC)c1,IC50,[1],12 nM
same,IC50,[2],6800 nM
same,IC50,T-cell [5],860 nM
same,IC50,[3],2 nM
same,IC50,[4],620 nM
Cc1cccc(C)c1OC(=O)N(c1cccc(-c2ccccc2)c1)c1ccnc(Nc2ccc(N3CCN(C)CC3)cc2)n1,IC50,[1],500 nM
same,IC50,[2],8000 nM
same,IC50,[3],49 nM
same,IC50,[4],1900 nM
COc1ccc(N(C(=O)Oc2c(C)cccc2C)c2ccnc(Nc3ccc(N4CCN(C)CC4)c(OC)c3)n2)c(OC)c1,IC50,[1],2 nM
same,IC50,[2],440 nM
same,IC50,T-cell [5],140 nM
same,IC50,[3],1 nM
same,IC50,[4],140 nM
COc1ccc(N(C(=O)Oc2c(C)cccc2C)c2ccnc(Nc3ccc(N4CCN(C)CC4)cc3)n2)cc1,IC50,[1],3 nM
same,IC50,[2],320 nM
same,IC50,[3],12 nM
same,IC50,[4],420 nM
Cc1cccc(C)c1OC(=O)N(c1ccnc(Nc2ccc(N3CCN(C)CC3)cc2)n1)c1ccc(F)cc1OC(C)C,IC50,[1],13 nM
same,IC50,[2],1200 nM
same,IC50,[3],1 nM
same,IC50,[4],4800 nM
COc1ccc(N(C(=O)Oc2c(C)cccc2C)c2ccnc(Nc3cc(OC)c(OCCN4CCOCC4)c(OC)c3)n2)c(OC)c1,IC50,[1],2 nM
same,IC50,[2],1200 nM
same,IC50,T-cell [5],410 nM
same,IC50,[3],1 nM
same,IC50,[4],170 nM
Cc1cccc(C)c1OC(=O)N(c1ccc2ccccc2c1)c1ccnc(Nc2ccc(N3CCN(C)CC3)cc2)n1,IC50,[1],14 nM
same,IC50,[2],740 nM
same,IC50,[3],10 nM
same,IC50,[4],130 nM
COc1ccc(N(C(=O)Oc2c(C)cccc2C)c2ccnc(Nc3ccc(OCCCN4CCN(C)CC4)c(OC)c3)n2)c(OC)c1,IC50,[1],2 nM
same,IC50,[2],2300 nM
same,IC50,T-cell [5],100 nM
same,IC50,[3],1 nM
same,IC50,[4],210 nM
COc1ccc(N(C(=O)Oc2c(C)cccc2C)c2ccnc(Nc3cc(OC)c(N4CCN(C)CC4)c(OC)c3)n2)c(OC)c1,IC50,[1],1 nM
same,IC50,[2],430 nM
same,IC50,T-cell [6],590 nM
same,IC50,[3],1 nM
same,IC50,[4],170 nM
COc1ccc(N(C(=O)Oc2c(C)cccc2C)c2ccnc(Nc3cc(OC)c(OCCCN4CCN(C)CC4)c(OC)c3)n2)c(OC)c1,fraction unbound,[7],0.013
same,AUC(0-inf),[8],568 ng·h/mL
same,clearance,[9],30.5 mL/min/kg
same,Vd,[10],11.3 L/kg
same,half-life,[11],4.6 h
same,Cmax,[12],22 ng/mL
same,Tmax,[13],4 h
same,IC50,[14],> 40000 nM
same,IC50,[15],> 5000 nM
same,IC50,T-cell [16],490 nM
same,IC50,Homo sapiens,3000 nM
same,IC50,T-cell [17],780 nM
same,IC50,T-cell [18],1800 nM
same,IC50,Jurkat,1700 nM
same,IC50,[1],1 nM
same,IC50,[2],530 nM
same,IC50,T-cell [5],61 nM
same,AUC(0-inf),[19],175 ng·h/mL
same,bioavailability,[20],6%
same,inhibition in vivo at 10 mg/kg,Mus musculus [21],11%
same,inhibition in vivo at 30 mg/kg,Mus musculus [22],21%
same,inhibition in vivo at 100 mg/kg,Mus musculus [23],60%
same,fraction unbound,[24],0.016
same,IC50,[25],200 nM
same,IC50,[26],100 nM
same,IC50,[27],> 25000 nM
same,IC50,[28],240 nM
same,IC50,[29],1200 nM
same,IC50,[30],> 5000 nM
Cc1cccc(C)c1OC(=O)N(c1ccccc1)c1ccnc(Nc2ccc(N3CCN(C)CC3)cc2)n1,IC50,[1],10 nM
same,IC50,[2],160 nM
same,IC50,[3],14 nM
same,IC50,[4],190 nM
